Series [1] can be described thus: Blood collected into different tubes spiked with TU, measured T (LA Biomed experiments). In kind it is in vitro ADME, human. The source says: Additionally, non-specific esterases in blood may lead to hydrolysis of testosterone undecanoate (TU) (and its metabolite DHTU) during the blood collection procedure used to collect serum or plasma for evaluating T, dihydrotestosterone (DHT), TU and dihydrotestosterone undecanoate (DHTU) concentrations. If the extent of hydrolysis ex vivo is significant (e.g., at high concentrations of circulating TU or DHTU), then serum or plasma values of T, DHT, TU and DHTU may not accurately reflect the true in vivo concentrations of these compounds (e.g., T and DHT values may be artificially high due to ex vivo conversion of TU to T or DHTU to DHT). It has previously been shown that the collection of blood in sodium fluoride (NaF) containing tubes (so called ‘gray tops’ in a clinical setting) interfered with the measurement of serum T with a 20% decrease in the measured serum T levels (Wang, et al, 2008). […] In addition, the measured T concentrations in fluoride-containing tubes decreased by about 12 to 25%. Lachance et al published an article in 2015 that concluded T must be analyzed in enzyme-inhibited (i.e., NaF containing) plasma or serum when TU is administered to subjects in an oral form.

Series [2] is described as follows: In vitro conversion of TU to T in whole blood at ambient temperature. The series is classed as in vitro ADME. The note with it: human blood, conditions typical of harvesting serum, no enzyme inhibitors. How it is done: Testosterone undecanoate is metabolized into testosterone. Its degradation in whole blood into testosterone has been studied in conditions typically used in clinical trials.
The in vitro conversion of TU to T in whole blood samples at ambient temperature was investigated by harvesting approximately 50 mL of blood from subjects prior to their oral TU administration. Aliquots of the pretreatment whole blood were added to 5 Plain sample collection tubes each tube previously spiked with 1 of 5 selected concentrations of TU (0, 30, 100, 300 and 1000 ng/mL). After gentle mixing, the tubes were stored at room temperature (about 23° C.) for 30 minutes prior to separating serum. […]
The frozen samples were stored at −20° C. until assay. All samples from a single participant were analyzed in the same assay run. Serum and plasma from the different tubes were measured using the methods developed for serum. Both T and DHT were measured in the same assay and both TU and […] were analyzed in the same assay developed for serum measurements. […]
When serum is harvested in the absence of enzyme inhibitors, the hydrolysis of TU and DHTU to T and DHT occurs during whole blood collection and processing to serum. […] Thus, testosterone must be analyzed in enzyme-inhibited plasma when TU is the administered medication.

The nature of series [3]: Single 316 mg oral TU dose, T concentration-time profiles by sample collection tube type. The series is classed as in vivo, human. The note with it: 3 hours post dose. How it is done: Each study participant received a single oral TU dose containing 316 mg TU immediately prior to a standardized breakfast meal comprised of 800 to 1000 calories containing approximately 30 g of fat or about 25 to 30 percent fat. Subjects were instructed to consume the entire breakfast meal in no more than 30 minutes. Blood samples were collected 30 minutes prior to oral TU administration and at 0 (pre-dose), and 1, 2, 3, 4, 5, 6, 7, 8, 9, 10, 11 and 12 hrs post-dose. Because of the timed sample collections, all except for one subject entered the clinical research unit around 7 AM and spend the study period of 12 to 14 hours in the unit. […]
Blood samples collected in tubes were kept at room temperature for 30 minutes then centrifuged at 4° C. for 20 minutes at >1000 g. For each blood collection tube, serum was separated promptly after centrifugation and equal quantities of serum were transferred into 2 appropriately labelled polypropylene tubes. […]
Blood samples collected in tubes were immediately kept on ice for 30 minutes then centrifuged at 4° C. for 20 minutes at >1000 g. For each blood collection tube, serum was separated promptly after centrifugation and equal quantities of serum were transferred into 2 appropriately labelled polypropylene tubes. […]
The frozen samples were stored at −20° C. until assay. All samples from a single participant were analyzed in the same assay run. […]

The conditions of series [4]: men; upper range for testosterone administered as TU (lymphatic absorption); cited from earlier work.

“Also recorded” adds a separate entry of the source.

`CCCCCCCCCCC(=O)O[C@H]1CC[C@H]2[C@@H]3CCC4=CC(=O)CC[C@]4(C)[C@H]3CC[C@]12C` [TU, testosterone undecanoate]: the “increases in the measured T levels after spiking with TU” value in series [1] (NaF+oxalate and NaF+EDTA tubes kept at 4° C. for 30 minutes, 0, 300 or 600 ng/ml TU) is on record as “minimal increases”. In series [1] (addition of TU in excess of 500 ng/ml, standard 'red top' plain tubes without additives), the “increase in measured T concentrations (ex vivo conversion of TU to T)” value lay within 20 to 25%. Besides, in series [2], the “degradation (conversion) of TU to testosterone in whole blood” value is “degrades extensively; also recorded: extensive and continues over time”. In addition, in series [3], the “difference in mean T concentration between the Plain tube type and the other tube types” value is given as “approximately 150 ng/dL”; the “mean assayed T concentration of NaF tube types, less than the Plain tube type” value is listed as “approximately 14%”.

Regarding `C[C@]12CC[C@H]3[C@@H](CCC4=CC(=O)CC[C@@]43C)[C@@H]1CC[C@@H]2O` [T, Testosterone], in series [4], the “plasma half-life of testosterone” value is 10 to 100 min.
